PMC7823355, “Pretreatment Effect of Inflammatory Stimuli and Characteristics of Tryptophan Transport on Brain Capillary Endothelial (TR-BBB) and Motor Neuron Like (NSC-34) Cell Lines” (Biomedicines, 2020)
Where two headings read alike, the source gives them in different places.

Columns and labels:
Format in all cases: cell-based
[1] = molecular target: T1, LAT1 (L-type amino acid transporter 1) (Rattus norvegicus, UniProt Q63016); test: inhibition of [3H]L-tryptophan uptake in TR-BBB cells at […] ([…] of control); conditions: read-out: Relative Uptake / (% of Control)
T1 construct: gene Slc7a5; endogenous LAT1 in TR-BBB cells

[2] = molecular target: T1, LAT1 (L-type amino acid transporter 1); test: competitive inhibition of [3H]L-tryptophan uptake in TR-BBB cells (Lineweaver-Burk)
[3] = molecular target: T2, LAT1 (L-type amino acid transporter 1) (Mus musculus, UniProt Q9Z127); test: radiolabelled uptake kinetics (Km) in NSC-34 cells, with LAT1 siRNA knockdown
T2 construct: gene Slc7a5; endogenous LAT1 in NSC-34 (hSOD1^WT) cells
From the text: radiolabelled uptake kinetics (Km) in NSC-34 cells, with LAT1 siRNA knockdown on LAT1 (L-type amino acid transporter 1) | LAT1 mRNA expression and tryptophan uptake results indicated significant depletion effect in LAT1 siRNA-transfected WT and MT cell lines

T1 sequence (Q63016 whole entry): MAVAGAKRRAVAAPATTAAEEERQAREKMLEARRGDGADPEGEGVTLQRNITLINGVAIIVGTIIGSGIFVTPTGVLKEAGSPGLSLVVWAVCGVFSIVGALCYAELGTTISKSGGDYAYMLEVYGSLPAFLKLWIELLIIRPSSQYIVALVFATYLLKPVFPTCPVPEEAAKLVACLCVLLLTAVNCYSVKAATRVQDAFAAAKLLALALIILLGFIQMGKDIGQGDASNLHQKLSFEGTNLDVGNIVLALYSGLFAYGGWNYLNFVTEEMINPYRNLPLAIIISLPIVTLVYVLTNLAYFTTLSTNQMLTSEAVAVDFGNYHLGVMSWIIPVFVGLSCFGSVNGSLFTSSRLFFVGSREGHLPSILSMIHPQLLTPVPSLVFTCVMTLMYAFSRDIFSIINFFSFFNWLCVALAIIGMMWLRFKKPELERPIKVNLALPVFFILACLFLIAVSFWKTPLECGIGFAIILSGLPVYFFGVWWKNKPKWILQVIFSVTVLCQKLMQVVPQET
T2 sequence (Q9Z127 whole entry): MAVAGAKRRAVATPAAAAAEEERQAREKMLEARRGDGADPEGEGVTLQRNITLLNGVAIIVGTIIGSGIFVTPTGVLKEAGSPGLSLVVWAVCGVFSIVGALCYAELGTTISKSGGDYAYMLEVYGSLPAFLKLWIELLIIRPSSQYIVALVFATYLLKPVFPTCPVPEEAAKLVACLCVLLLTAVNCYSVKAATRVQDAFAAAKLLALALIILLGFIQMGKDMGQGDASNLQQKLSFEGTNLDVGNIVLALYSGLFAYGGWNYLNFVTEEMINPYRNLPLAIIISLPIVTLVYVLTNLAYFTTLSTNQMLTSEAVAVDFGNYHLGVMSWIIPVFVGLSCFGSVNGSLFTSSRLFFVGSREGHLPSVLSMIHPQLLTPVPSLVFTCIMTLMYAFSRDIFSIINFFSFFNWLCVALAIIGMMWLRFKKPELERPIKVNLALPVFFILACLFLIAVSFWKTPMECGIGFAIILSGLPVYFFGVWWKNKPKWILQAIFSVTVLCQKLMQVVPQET

NC1(C(=O)O)CC2CCC1C2 (stereo not shown) [BCH]
remaining activity at 2000 µM [1]: 21 ± 1.3%

NCC(CC(=O)O)c1ccc(Cl)cc1 (stereo not shown) [Baclofen]
Ki ([2]; read-out: Ki): 1620 µM

NCC1(CC(=O)O)CCCCC1 [Gabapentin]
Ki [2]: 210 µM

N[C@@H](Cc1c[nH]c2ccccc12)C(=O)O [L-tryptophan]
Km [3]: 33.1 ± 1.2 µM
